Common to all, as to experiment: inhibition of tumour cell growth, NCI panel, 48 h
Test [1] concerns A549 NSCLC.
Test [2] has as its system ACHN renal.
The test system of test [3] is CAKI-1 renal.
Test [4] deals with CCRF-CEM leukemia.
For test [5], the system named is HCC-2998 colon.
The subject of test [6] is HL-60(TB) leukemia.
The subject of test [7] is HS 578T breast.
Test [8] has as its system K-562 leukemia.
Test [9] concerns LOX IMVI melanoma.
Test [10] concerns MALME-3M melanoma.
Test [11] has as its system MDA-MB-231 breast.
For test [12], the system named is NCI-H460 lung.
In test [13] the test system is OVCAR-8 ovarian.
Test [14] deals with PC-3 prostate.
In test [15] the test system is SK-MEL-2 melanoma.
Test [16] concerns SNB-19 CNS.
The test system of test [17] is SW-620 colon.
Test [18] has as its system UACC-257 melanoma.
Test [19] has as its system MDA-N.
Test [20] deals with NCI-H522 lung.

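Growth conditions: 96-well plates. Treatment: test compound, 48 hours, 5 concentrations. Analysis: linear interpolation between bracketing concentrations; unreached endpoints set to highest concentration. TGI: concentration producing complete growth inhibition.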

The values that follow come from PubChem BioAssay (NCI).

For the compound `COc1ccc2c(c1)/C(=C\c1c(Cl)n(-c3ccccc3)c3ccccc13)C(=O)N2`, the TGI in test [1] came to 51.4 µM; in test [2] it was 45.1 µM; in [3] it was 56.7 µM; in test [4] it was 55.8 µM; in test [5] it was 22.2 µM; in [6] it was 10.7 µM. Moreover, the TGI in test [7] was 5.28 µM; in [8], greater than 100 µM; in test [9] it was 92.7 µM; in test [10], 19.3 µM; in [11], greater than 100 µM; in [12], 68.2 µM. For the same compound, the TGI is greater than 100 µM in test [13]; greater than 100 µM in test [14]; 51.1 µM in test [15]; 22.1 µM in test [16]; greater than 100 µM in [17]; 50.8 µM in test [18].

On to `C[N+](C)(C)CCOP(=O)([O-])OCCNC(=O)c1ccc2ccccc2c1`, for which the TGI in [1], in [2], in test [3], in test [4], in test [5] and in test [6] was greater than 100 µM in each case. In addition, the TGI in [8], in [9], in test [10], in test [11], in test [19] and in test [20] was greater than 100 µM in each case. Further, the TGI in [13], in [14], in test [16], in test [17] and in [18] was greater than 100 µM throughout.

Consider `O=C(c1ccccc1)N1CCC(Nc2nccs2)O1` (stereo unspecified), for which the TGI in [1], in test [2], in [3], in [4], in test [5] and in [6] was greater than 10 µM in each case. Also, the TGI in test [7], in test [8], in [9], in [10], in test [11] and in test [12] was greater than 10 µM each time. Moreover, the TGI in test [20], in test [13], in test [14], in test [15], in test [16] and in test [17] was greater than 10 µM throughout. In addition, the TGI in [18] is greater than 10 µM.

`Cc1c/c(=N/NC(=O)c2ccncc2)n2nc(N)sc2n1`: the TGI in [1], in test [2], in test [3], in test [4], in [5] and in [6] was greater than 100 µM throughout. In addition, the TGI in [8], in [9], in test [11], in test [12], in test [20] and in test [13] was greater than 100 µM in each case. Moreover, the TGI in test [14], in test [15], in test [16], in test [17] and in [18] was greater than 100 µM each time.

As to `N#C/C(C(=O)Nc1ccc(Cl)cc1)=C(/N)N1CCOCC1`, the TGI in test [1], in test [2], in test [3], in test [4], in [5] and in [8] was greater than 100 µM each time. The TGI in [9], in test [19], in test [12], in [13], in [14] and in [15] was greater than 100 µM in each case. The TGI in test [16], in test [17] and in test [18] was greater than 100 µM in each case.

`CC(C)(C)OC(=O)NC(CS(=O)(=O)O)C(=O)O` (stereo unspecified): the TGI in [1], in test [2], in test [3], in test [4], in [5] and in test [6] was greater than 100 µM in each case. For the same compound, the TGI in test [8], in test [9], in test [10], in test [11], in [19] and in test [12] was greater than 100 µM in each case. Further, the TGI in [20], in test [13], in test [14], in [15], in [16] and in test [17] was greater than 100 µM in each case. The TGI in test [18] was greater than 100 µM.

For the compound `COc1ccc(Nc2nc3ccc(C(F)(F)F)cc3nc2C(=O)O)cc1`, the TGI in test [1] was greater than 100 µM; in [3], greater than 100 µM; in test [4], 63.5 µM; in [5] it was 50 µM; in [8] it was greater than 100 µM; in test [9], greater than 100 µM. Also, the TGI in test [10] is greater than 100 µM; in test [11], greater than 100 µM; in [19], greater than 100 µM; in [12], 83.7 µM; in [13], greater than 100 µM; in test [14], 92.4 µM. For the same compound, the TGI is greater than 100 µM in [15], greater than 100 µM in test [17] and 96.7 µM in [18].

Turning to `CC(=O)N(CCCCNC(=O)C(F)(F)F)CCCNC(=O)C(F)(F)F`, the TGI in [1], in [2], in test [4], in [5], in test [6] and in test [7] was greater than 100 µM in each case. The TGI in test [8], in [11], in test [12], in test [20], in test [13] and in test [14] was greater than 100 µM each time. The TGI in [15], in test [16], in test [17] and in [18] was greater than 100 µM each time.
